Laboratory results reported in patent US6737383B1, “Herbicidal oxadiazolidines” (priority 1999, dated 2004).

How the values were obtained:
giant foxtail = test: Test B pre/postemergence giant foxtail; format: in vivo, Setaria faberii
Summary of the method: (§1)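 Response is a visual 0-to-10 score relative to untreated plants, where 0 means no effect and 10 means complete control, taken twelve to sixteen days after application. Treatments went onto soil at planting and onto foliage of 1- to 4-leaf plants, using a surfactant-containing non-phytotoxic solvent.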

bedstraw = test: Test B pre/postemergence bedstraw; format: in vivo, Galium aparine
Summary of the method: as §1

rice = test: Test B flood test rice; format: in vivo, Oryza sativa
Summary of the method: (§2)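 Each value is a visual injury score relative to controls, with 10 meaning complete control and 0 no effect. Evaluation took place twelve to sixteen days after the 2-leaf-stage plants were treated and kept in the greenhouse.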

blackgrass = test: Test B pre/postemergence blackgrass; format: in vivo, Alopecurus myosuroides
Summary of the method: as §1

smallflower flatsedge = test: Test B flood test smallflower flatsedge; format: in vivo, Cyperus difformis
Summary of the method: as §2

wheat = test: Test B pre/postemergence wheat; format: in vivo, Triticum aestivum
Summary of the method: as §1

pigweed = test: Test B pre/postemergence pigweed; format: in vivo, Amaranthus retroflexus
Summary of the method: as §1

velvetleaf = test: Test B pre/postemergence velvetleaf; format: in vivo, Abutilon theophrasti
Summary of the method: as §1

wild oat = test: Test B pre/postemergence wild oat; format: in vivo, Avena fatua
Summary of the method: as §1

crabgrass = test: Test B pre/postemergence crabgrass; format: in vivo, Digitaria sanguinalis
Summary of the method: as §1

morningglory = test: Test B pre/postemergence morningglory; format: in vivo, Ipomoea hederacea
Summary of the method: as §1

soybean = test: Test B pre/postemergence soybean; format: in vivo, Glycine max
Summary of the method: as §1

purple nutsedge = test: Test B pre/postemergence purple nutsedge; format: in vivo, Cyperus rotundus
Summary of the method: as §1

corn = test: Test B pre/postemergence corn; format: in vivo, Zea mays
Summary of the method: as §1

duck salad = test: Test B flood test duck salad; format: in vivo, Heteranthera limosa
Summary of the method: as §2

surinam grass = test: Test B pre/postemergence surinam grass; format: in vivo, Brachiaria decumbens
Summary of the method: as §1

[1] = Postemergence, Rate 31 g/ha, visual rating, scale 0 to 10 (0 no effect, 10 complete control)
[2] = Preemergence, Rate 31 g/ha, visual rating, scale 0 to 10 (0 no effect, 10 complete control)
[3] = Preemergence, Rate 62 g/ha, scale of 0 to 10 where 0 is no effect and 10 is complete control
[4] = Preemergence, Rate 250 g/ha, scale of 0 to 10 where 0 is no effect and 10 is complete control
[5] = Rate 62 g/ha, Postemergence, scale 0 to 10 (0 no effect, 10 complete control)
[6] = Rate 125 g/ha, Postemergence, scale of 0 to 10 where 0 is no effect and 10 is complete control
[7] = Rate 125 g/ha, Preemergence, scale of 0 to 10 where 0 is no effect and 10 is complete control
[8] = Rate 250 g/ha, Postemergence, scale of 0 to 10 where 0 is no effect and 10 is complete control
[9] = Rate 31 g/ha, Pre-emergence section (flood test species), scale 0 to 10
[10] = Rate 62 g/ha, headed Pre-emergence (flood test species), scale 0 to 10 (0 no effect, 10 complete control)
[11] = Rate 125 g/ha, Pre-emergence, flood test species, scale 0 to 10 where 0 is no effect and 10 is complete control
[12] = Rate 250 g/ha, Pre-emergence, flood-test species, scale 0 to 10, 0 is no effect, 10 is complete control

CC(C)N(C(=O)n1oc(=O)n(C(C)C)c1=O)c1cnccn1 [Compound 296]
1: Plant response rating, Morningglory (morningglory; [8]) | Plant response rating, Soybean (soybean; [8])
0: Giant foxtail plant response rating (giant foxtail; [1]) | Giant foxtail plant response rating (giant foxtail; [2]) | Giant foxtail plant response rating (giant foxtail; [3]) | Giant foxtail plant response rating (giant foxtail; [4]) | Giant foxtail plant response rating (giant foxtail; [5]) | Giant foxtail plant response rating (giant foxtail; [6]) | Giant foxtail plant response rating (giant foxtail; [7]) | Plant response rating, Giant foxtail (giant foxtail; [8]) | Bedstraw plant response rating (bedstraw; [1]) | Bedstraw plant response rating (bedstraw; [2]) | Bedstraw plant response rating (bedstraw; [3]) | Bedstraw plant response rating (bedstraw; [4]) | Bedstraw plant response rating (bedstraw; [5]) | Bedstraw plant response rating (bedstraw; [6]) | Bedstraw plant response rating (bedstraw; [7]) | Plant response rating, Bedstraw (bedstraw; [8]) | Rice plant response rating (rice; [9]) | Rice plant response rating (rice; [10]) | Rice plant response rating (rice; [11]) | Rice plant response rating (rice; [12]) | Blackgrass plant response rating (blackgrass; [1]) | Blackgrass plant response rating (blackgrass; [2]) | Blackgrass plant response rating (blackgrass; [3]) | Blackgrass plant response rating (blackgrass; [4]) | Blackgrass plant response rating (blackgrass; [5]) | Blackgrass plant response rating (blackgrass; [6]) | Blackgrass plant response rating (blackgrass; [7]) | Plant response rating, Blackgrass (blackgrass; [8]) | S. Flatsedge plant response rating (smallflower flatsedge; [9]) | S. Flatsedge plant response rating (smallflower flatsedge; [10]) | S. Flatsedge plant response rating (smallflower flatsedge; [11]) | S. Flatsedge plant response rating (smallflower flatsedge; [12]) | Wheat plant response rating (wheat; [1]) | Wheat plant response rating (wheat; [3]) | Wheat plant response rating (wheat; [4]) | Wheat plant response rating (wheat; [5]) | Wheat plant response rating (wheat; [6]) | Wheat plant response rating (wheat; [7]) | Plant response rating, Wheat (wheat; [8]) | Redroot pigweed plant response rating (pigweed; [1]) | Redroot pigweed plant response rating (pigweed; [3]) | Redroot pigweed plant response rating (pigweed; [4]) | Redroot pigweed plant response rating (pigweed; [5]) | Redroot pigweed plant response rating (pigweed; [6]) | Redroot pigweed plant response rating (pigweed; [7]) | Plant response rating, Redroot pigweed (pigweed; [8]) | Velvetleaf plant response rating (velvetleaf; [1]) | Velvetleaf plant response rating (velvetleaf; [3]) | Velvetleaf plant response rating (velvetleaf; [4]) | Velvetleaf plant response rating (velvetleaf; [5]) | Velvetleaf plant response rating (velvetleaf; [6]) | Velvetleaf plant response rating (velvetleaf; [7]) | Plant response rating, Velvetleaf (velvetleaf; [8]) | Wild oats plant response rating (wild oat; [1]) | Wild oats plant response rating (wild oat; [3]) | Wild oats plant response rating (wild oat; [4]) | Wild oats plant response rating (wild oat; [5]) | Wild oats plant response rating (wild oat; [6]) | Plant response rating, Wild oats (wild oat; [8]) | Crabgrass plant response rating (crabgrass; [1]) | Crabgrass plant response rating (crabgrass; [2]) | Crabgrass plant response rating (crabgrass; [3]) | Crabgrass plant response rating (crabgrass; [4]) | Crabgrass plant response rating (crabgrass; [5]) | Crabgrass plant response rating (crabgrass; [6]) | Crabgrass plant response rating (crabgrass; [7]) | Plant response rating, Crabgrass (crabgrass; [8]) | Morningglory plant response rating (morningglory; [1]) | Morningglory plant response rating (morningglory; [3]) | Morningglory plant response rating (morningglory; [4]) | Morningglory plant response rating (morningglory; [5]) | Morningglory plant response rating (morningglory; [6]) | Morningglory plant response rating (morningglory; [7]) | Soybean plant response rating (soybean; [1]) | Soybean plant response rating (soybean; [3]) | Soybean plant response rating (soybean; [4]) | Soybean plant response rating (soybean; [5]) | Soybean plant response rating (soybean; [6]) | Soybean plant response rating (soybean; [7]) | Nutsedge plant response rating (purple nutsedge; [1]) | Nutsedge plant response rating (purple nutsedge; [3]) | Nutsedge plant response rating (purple nutsedge; [5]) | Nutsedge plant response rating (purple nutsedge; [6]) | Nutsedge plant response rating (purple nutsedge; [7]) | Plant response rating, Nutsedge (purple nutsedge; [8]) | Corn plant response rating (corn; [1]) | Corn plant response rating (corn; [2]) | Corn plant response rating (corn; [3]) | Corn plant response rating (corn; [4]) | Corn plant response rating (corn; [5]) | Corn plant response rating (corn; [6]) | Corn plant response rating (corn; [7]) | Plant response rating, Corn (corn; [8]) | Ducksalad plant response rating (duck salad; [9]) | Ducksalad plant response rating (duck salad; [10]) | Ducksalad plant response rating (duck salad; [11]) | Ducksalad plant response rating (duck salad; [12]) | B. signalgrass plant response rating (surinam grass; [1]) | B. signalgrass plant response rating (surinam grass; [2]) | B. signalgrass plant response rating (surinam grass; [3]) | B. signalgrass plant response rating (surinam grass; [4]) | B. signalgrass plant response rating (surinam grass; [5]) | B. signalgrass plant response rating (surinam grass; [6]) | B. signalgrass plant response rating (surinam grass; [7]) | Plant response rating, B. signalgrass (surinam grass; [8])
